Source: patent publication US5519028A, “Antiviral preparations” (priority 1992, dated 1996)

Tests used:
HIV [1] = type: cell-based
TNF-α [2] = assay: TNF-α production by monocytes of normal donors; type: cell-based, human
Experimental: (§1) The effects of flavopereirine on the production of primary (IL-1β and TNF-α) and secondary (IL-6) cytokines by monocytes was also tested. The adhesive monocytes used were taken from the blood of two types of donors:
Normal donors--voluntary blood donors who attended the blood bank of the Pitie-Salpetriere Hospital, Paris, France; and
Product H was not used in these experiments at a rate of more than 20 μg/ml water, since above this rate, net toxicity could have been produced.

[3] = Cytotoxicity (viability) in resting PBMC; type: cell-based, human; settings: human, pbmc, read-out: Viability of PBMC after exposure; for viability at 72 h: d3; for viability at 168 h: d7; for viability at 264 h: d11; for viability at 312 h: d13; for viability at 360 h: d15
Experimental: (§2) To evaluate the cytotoxicity of flavopereirine in resting PBMC and in blast cells, prewashed fresh and blastic PBMC taken from five randomly-selected,healthy, HIV-negative donors were treated in triplicate with 30 or 60 μg flavopereirine per ml of alcoholic solution for two hours, After washing twice, the cells were placed in culture in cellular culture medium until day 15. The viability of the cells of each group was examined by exclusion coloring with trypan blue and by quantimetric analysis. Cultures of HIV-negative PBMC without flavopereirine (compound H) were used as controls.

human PBMC at rest = assay: Cytotoxicity (viability) in resting PBMC; type: cell-based
Experimental: as §2

influenza virus = settings: cited from earlier work
TNF-α [4] = assay: TNF-α production by monocytes of HIV-positive donors; type: cell-based, human
Experimental: as §1
HIV-positive donors from medical consultations. These individuals were in the early stages of HIV infection and, at the moment of taking the blood, were not undergoing any treatment. The risk factors involved were intravenous drug abuse for six of the donors, sexual transmission for three and blood transfusion (in Zaire) for one patient. No correlation was found between the risk factors and the results of the experiments.
The response of the monocytes taken from the various HIV-positive donors was tested in terms of spontaneous response. The quantities of cells received were low (the donors were not affected by cytapheresy), and the experiments were therefore limited by the number of cells available.

in vivo = settings: for LD50 at 336 h / LD50 safety limits: rat, in vivo
Experimental: In accordance with the invention, flavopereirine is administered orally in the forms of capsules to patients infected with HIV at levels of 1-3 grams per day.

HIV-1 = HIV-1 cytopathogenic effect on MT4 cells (syncytia count); type: cell-based
Experimental: An evaluation of the antiviral effect of flavopereirine was also undertaken by studying the cytopathogenic effect of the HIV virus on MT4 cells, given that a formation of syncytia was observed 4-6 days after infection by HIV-1, followed by the death of the cells.
The flavopereirine was used in the form of an alcoholic solution (40 mg in 100 μl alcohol). Dilutions were made in RPMI medium at 10% of FCS, 1% of PSN and 1% of glutamine. The MT4 cells were left to pre-incubate for two hours at 37° C. with a successive dilution of flavopereirine containing 3×10^5 cells for 10 μl of flavopereirine solution. The solution was obtained by adding 100 μl of a 10^-4 dilution of HIV-1 virus, producing a syncytia formation in 4-6 days. After one hour of incubation at 37° C., the infected MT4 cells were washed three times with RPMI solution before being placed in culture (3×10^5 cells/ml in microplates with 24 wells) with the presence of different dilutions of flavopereirine. The syncytia count was taken each day in duplicate.

MT4 cells = assay: Cellular toxicity in MT4 cells; type: cell-based; settings: d3, duplicate
HIV [5] = settings: human, in vivo
[6] = test system: viruses of the Shope fibrome type; settings: intracutaneously 200-600 μg or 2.5-500 mg/day; cited from earlier work
[7] = Cytotoxicity (viability) in blastic PBMC; type: cell-based, human; settings: human, pha-stimulated pbmc, blastic, read-out: Viability of PBMC after exposure; for viability at 72 h: d3; for viability at 168 h: d7; for viability at 264 h: d11; for viability at 312 h: d13; for viability at 360 h: d15
Experimental: as §2

[8] = test system: PBMC stimulated by PHA (blastic); assay: Cytotoxicity (viability) in blastic PBMC; type: cell-based, human; settings: 30 or 60 μg/ml
Experimental: as §2

[9] = test system: human PBMC stimulated with PHA (blasts); assay: Cytotoxicity in PHA-stimulated PBMC with or without human AB serum; type: cell-based
Experimental: The cytotoxicity of flavopereirine (compound H) in human PBMC stimulated with PHA was tested in the presence and absence of human AB serum as shown in Table IX.

SMILES: CCc1ccc2c3[nH]c4ccccc4c3cc[n+]2c1 [flavopereirine]
- infectious units detectable (HIV [1]): ≤ 3000
- inhibition of infection (HIV [1]): exceeds 99%
- reduction in quantity of infected cells (HIV [1]; h-9 cells): around 40%
- direct activity on production of TNF-α (TNF-α [2]; donor 7, one dose only): Increase in the production of TNF-α
- indirect activity on production of TNF-α (TNF-α [2]; stimulated monocytes, heavy dosage only (20 βg/ml as printed), p<0.05): sharp reduction in production
- viability at 72 h ([3]; 30 μg/ml 2 hrs): 95 ± 4%
- viability at 168 h ([3]; 30 μg/ml 2 hrs): 93 ± 2%
- viability at 264 h ([3]; 30 μg/ml 2 hrs): 88 ± 7%
- viability at 312 h ([3]; 30 μg/ml 2 hrs): 82 ± 10%
- viability at 360 h ([3]; 30 μg/ml 2 hrs): 81 ± 11%
- viability at 72 h ([3]; 60 μg/ml 2 hrs): 56 ± 6%
- viability at 168 h ([3]; 60 μg/ml 2 hrs): 23 ± 4%
- viability at 264 h ([3]; 60 μg/ml 2 hrs): 17 ± 4%
- viability at 312 h ([3]; 60 μg/ml 2 hrs): 12 ± 5%
- viability at 360 h ([3]; 60 μg/ml 2 hrs): 25 ± 8%
- significant reduction of viability of resting PBMC (human PBMC at rest; 30 μg/ml): this was not the case
- viability of resting PBMC (human PBMC at rest; 60 μg/ml, p<0.05): reduced significantly
- activity against the influenza virus (influenza virus; EP-A-0 059 817): active against the influenza virus
- action against influenza (RNA virus) (influenza virus; in vivo): appears to act in vivo against influenza
- indirect activity on production of TNF-α (TNF-α [4]; 20 μg/ml only, p<0.05): almost total reduction in the production of TNF-α
- direct activity on base production of TNF-α (TNF-α [4]; HIV-positive donors): No modification on the base production was observed
- LD50 at 336 h (in vivo; ip): 2450 mg/kg
- LD50 safety limits (in vivo; ip): 2350 to 2550 mg/kg
- LD50 at 336 h (in vivo; po): 10400 mg/kg
- LD50 safety limits (in vivo; po): 9630 to 11350 mg/kg
- change in mortality rate (in vivo; subsequent 14 days, surviving animals): No change in mortality rate
- syncytia (HIV-1; 100 ng/ml, d7, duplicate, Table I): ++/T
- syncytia (HIV-1; 1 μg/ml, d7, duplicate, Table I): ++/T
- syncytia (HIV-1; 30 μg/ml, d6, duplicate, Table III): a few were observed after 6 days
- syncytia (HIV-1; 50 μg/ml, d7, duplicate, Table I): syncytia had not formed after 7 days culture
- protection (HIV-1; 50 μg/ml, Table II summary): confirms the protection
- syncytia (HIV-1; 60 μg/ml, d7, duplicate, Table III): no syncytia were formed
- syncytia (HIV-1; from 10 μg/ml to 100 ng/ml, Table I summary): syncytia was observed, as it was in the HIV-1 control
- cellular toxicity (MT4 cells; 100 μg/ml, Table I): cellular toxicity
- cellular toxicity (MT4 cells; 100 μg/ml, Table I, listed as H): Tox
- cellular toxicity (MT4 cells; 100 μg/ml, Table II): Tox
- cellular toxicity (MT4 cells; 400 μg/ml, Table I): cellular toxicity
- cellular toxicity (MT4 cells; 400 μg/ml, Table I, listed as H): Tox
- CD2 (HIV [5]): Increase
- CD4 (HIV [5]): Increase
- CD4+ cells (HIV [5]): significant increase
- CD8 (HIV [5]): Increase
- CD19 (HIV [5]): Increase
- CD19+ cells (HIV [5]): significant increase
- Karnofsky's index (HIV [5]): ~100%
- blood or renal toxicity (HIV [5]): Neither blood nor renal toxicity was observed
- degradation in CDC classification (HIV [5]): No degradation in the CDC classification
- effect on viral infectional capacity of HIV (HIV [5]): significant inhibitory effect on the viral infectional capacity of HIV
- hemoglobin (HIV [5]): Increase
- infections (HIV [5]): no infections were noticed
- microglobulin beta-2 (HIV [5]): Increase
- modification in ALAT or ASAT (HIV [5]): nor was there any significant modification in ALAT or ASAT
- patients with negative decline in CD4+ reversed (HIV [5]): 18 out of 19
- physical and professional activity (HIV [5]): remained completely normal
- red cells (HIV [5]): Increase
- side effects (HIV [5]): Side effects were few, occurring only in the first three months
- total lymphocyte mass (HIV [5]): Increase
- toxic or side effects (HIV [5]; po): devoid of toxic or side effects
- appearance and development of vital papules [6]: prevents the appearance and development of vital papules
- viability at 72 h ([7]; 30 μg/ml 2 hrs): 88 ± 3%
- viability at 168 h ([7]; 30 μg/ml 2 hrs): 35 ± 7%
- viability at 264 h ([7]; 30 μg/ml 2 hrs): 71 ± 3%
- viability at 312 h ([7]; 30 μg/ml 2 hrs): 76 ± 9%
- viability at 360 h ([7]; 30 μg/ml 2 hrs): 69 ± 8%
- viability at 72 h ([7]; 60 μg/ml 2 hrs): 79 ± 4%
- viability at 168 h ([7]; 60 μg/ml 2 hrs): 74 ± 5%
- viability at 264 h ([7]; 60 μg/ml 2 hrs): 70 ± 4%
- viability at 312 h ([7]; 60 μg/ml 2 hrs): 71 ± 8%
- viability at 360 h ([7]; 60 μg/ml 2 hrs): 63 ± 7%
- viability of blastic cells [8]: appeared to be independent of exposure to compound H
- viability of blast PBMC ([9]; 200 μg/ml, p<0.001): diminished significantly
- significant reduction of viability of blast PBMC ([9]; 100, 60, 30 and 10 μg/ml): this was not the case
